Laboratory results reported in BindingDB's records for doi:10.1111/cbdd.12681 (Peking University, 2016).

Target: T1, Dihydrofolate reductase (Homo sapiens, UniProt P00374)
T1 sequence (P00374 whole entry): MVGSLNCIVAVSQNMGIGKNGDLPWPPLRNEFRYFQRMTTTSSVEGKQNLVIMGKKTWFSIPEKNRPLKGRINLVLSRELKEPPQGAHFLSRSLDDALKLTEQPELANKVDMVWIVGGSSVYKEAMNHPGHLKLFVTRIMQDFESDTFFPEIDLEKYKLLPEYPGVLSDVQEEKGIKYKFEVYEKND
Experiment: DHFR Inhibition Assay
Conditions: pH 7.5
Protocol: The recombinant human (rh) DHFR was purchased from Sigma-Aldrich (Shanghai, China). All rhDHFR enzymes were assayed spectrophotometrically in a solution containing 0.1 mM dihydrofolate, 0.3 mM NADPH and 100 mM KCl at pH 7.5 and 32 °C. The reaction was initiated with an amount of enzyme yielding a change in O.D. at 340 nm measured by microplate spectrophotometer.

| SMILES | IC50 |
| --- | --- |
| Nc1nc(N)c2c(n1)CCC(CCc1ccc(C(=O)N[C@@H](CCC(=O)O)C(=O)O)cc1)N2 (stereo partly drawn) [4-[2-(2,4-Diamino-5,6,7,8-tetrahydropyrido[3,2-d]pyrimidin-6-yl)ethyl]benzoyl-L-glutamic acid (17a)] | 0.04 µM |
| C=CCN1c2c(N)nc(N)nc2CCC1CCc1ccc(C(=O)N[C@@H](CCC(=O)O)C(=O)O)cc1 (stereo partly drawn) [4-[2-(2,4-Diamino-5-allyl-5,6,7,8-tetrahydropyrido[3,2-d]pyrimidin-6-yl)ethyl]benzoyl-L-glutamic acid (20a)] | 0.706 µM |
| Nc1nc(N)c2c(n1)CCC(CCc1ccc(C(=O)N[C@@H](CCC(=O)O)C(=O)O)cc1)N2C=O (stereo partly drawn) [4-[2-(2,4-Diamino-5-formyl-5,6,7,8-tetrahydropyrido[3,2-d]pyrimidin-6-yl)ethyl]benzoyl-L-glutamic acid (19a)] | 0.041 µM |
| C=CCN1c2c(O)nc(N)nc2CCC1CCc1ccc(C(=O)N[C@@H](CCC(=O)O)C(=O)O)cc1 (stereo partly drawn) [4-[2-(2-Amino-4-hydroxy-5-allyl-5,6,7,8-tetrahydropyrido[3,2-d]pyrimidin-6-yl)ethyl]benzoyl-L-glutamic acid (23a)] | 0.298 µM |
| Nc1nc(O)c2c(n1)CCC(CCc1ccc(C(=O)N[C@@H](CCC(=O)O)C(=O)O)cc1)N2C=O (stereo partly drawn) [4-[2-(2-Amino-4-hydroxy-5-formyl-5,6,7,8-tetrahydropyrido[3,2-d]pyrimidin-6-yl)ethyl] benzoyl-L-glutamic acid (22a)] | 10.1 µM |
| Nc1nc(O)c2c(n1)CCC(CCc1ccc(C(=O)N[C@@H](CCC(=O)O)C(=O)O)cc1)N2 (stereo partly drawn) [4-[2-(2-Diamino-4-hydroxy-5,6,7,8-tetrahydropyrido[3,2-d]pyrimidin-6-yl)ethyl]benzoyl-L-glutamic acid (18a)] | 0.059 µM |
| Nc1nc(N)c2c(n1)CCC(CCc1ccc(C(=O)N[C@@H](CCC(=O)O)C(=O)O)cc1)N2CC(Br)CBr (stereo partly drawn) [4-[2-[2,4-Diamino-5-(2,3-dibromopropyl)-5,6,7,8-tetrahydropyrido[3,2-d]pyrimidin-6-yl]ethyl]benzoyl-L-glutamic acid (21a)] | 0.68 µM |
| Nc1nc(N)c2c(n1)CCC(CNc1ccc(C(=O)N[C@@H](CCC(=O)O)C(=O)O)cc1)N2C=O (stereo partly drawn) [N-[4-[2-(2,4-Diamino-5-formyl-5,6,7,8-tetrahydropyrido[3,2-d]pyrimidin-6-yl)methyl]amino]benzoyl]-L-glutamic acid (24a)] | 0.59 µM |
